Test results published in article PMC5259791 (Scientific Reports, 2017).

Tests used:
PPARγ = target: T1, PPARγ (Homo sapiens, UniProt P37231); assay: SPR on immobilized PPARγ; type: binding
T1 sequence (P37231 195-477 isoform P37231-2 limits assumed): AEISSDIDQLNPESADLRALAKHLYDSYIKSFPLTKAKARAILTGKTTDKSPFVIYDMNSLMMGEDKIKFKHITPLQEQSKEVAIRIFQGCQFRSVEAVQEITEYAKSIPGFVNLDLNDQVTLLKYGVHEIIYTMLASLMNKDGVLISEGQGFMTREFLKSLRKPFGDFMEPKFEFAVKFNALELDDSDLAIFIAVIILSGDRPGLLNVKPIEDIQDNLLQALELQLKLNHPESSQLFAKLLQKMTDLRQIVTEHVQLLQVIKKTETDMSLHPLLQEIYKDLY
Procedure: ; SPR analysis was also performed using the immobilized PPARγ LBD to evaluate if this protein portion was involved in the interaction with 1; […]. Conversely, no affinity of the diterpene towards Hsp60 was observed (Fig. 2c).
To assess the potential of 1 to act as a PPARγ modulator, we investigated the structural and functional aspects of its interaction with this nuclear receptor. To define the structural features required by 1 for an efficient interaction with PPARγ, as a first step, we performed SPR analyses using some diterpenes displaying structural relationship with 1 (compounds 2–9, Fig. 1). […]. SPR analyses were carried out on a BIACORE 3000 instrument (GE-Healthcare). PPARα, PPARγ, PPARδ and HSP60 surfaces were prepared on research−grade CM5 sensor chips (GE Healthcare). Proteins (100 μg/ml in 10 mM CH3COONa, pH 5.0) were immobilized using a standard amine−coupling protocol, to obtain densities of 3–5 kRU. Testing compounds were dissolved in 100% DMSO to obtain 4 mM solutions, and then diluted in PBS containing variable amounts of DMSO, achieving a final DMSO concentration of 0.1%. […]. SPR experiments and data elaboration were carried out as reported elsewhere.

wild-type PPARγ1 = target: T2, wild-type PPARγ1 (Homo sapiens, UniProt P37231); assay: PPRE-luciferase transactivation in HEK293T cells co-transfected with wild-type PPARγ1; type: cell-based; details: wild type receptor, 24 h
T2 construct: expressed in transfected cells; host or cells: HEK293T (transient); vectors from Takuma Shiraki
T2 sequence (P37231 1-477 isoform P37231-2): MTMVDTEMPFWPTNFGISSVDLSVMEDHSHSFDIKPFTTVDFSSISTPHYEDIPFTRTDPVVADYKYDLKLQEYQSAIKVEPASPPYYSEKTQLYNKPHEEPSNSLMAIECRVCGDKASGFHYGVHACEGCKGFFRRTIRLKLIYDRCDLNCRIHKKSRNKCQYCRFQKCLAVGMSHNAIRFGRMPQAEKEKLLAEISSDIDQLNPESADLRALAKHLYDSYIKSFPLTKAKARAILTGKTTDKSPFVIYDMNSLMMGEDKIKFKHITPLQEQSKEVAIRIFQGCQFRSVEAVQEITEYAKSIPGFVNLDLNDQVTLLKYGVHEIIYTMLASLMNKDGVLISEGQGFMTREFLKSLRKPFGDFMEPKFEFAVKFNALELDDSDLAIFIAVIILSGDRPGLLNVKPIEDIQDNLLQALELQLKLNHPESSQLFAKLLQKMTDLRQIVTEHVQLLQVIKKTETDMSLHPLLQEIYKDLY
Description: Luciferase activity is reported as fold-induction after normalization to β-galactosidase activity used as control for transfection efficiency. […] (b) Human HEK293T cells were co-transfected with the PPRE-luciferase reporter gene and the wild-type PPARγ1 or its mutant version (C285A). […] Luciferase activity is reported as fold-induction after normalization to β-galactosidase activity used as control for transfection efficiency.
To this goal we transiently transfected basal HEK293T cells with the PPRE-TK-luciferase-reporter plasmid along with the expression vector for the wild-type PPARγ1 or the mutant version carrying the C285A substitution.
HEK293 cells that stably express an exogenous Flag-tagged PPARγ from a transfected PCDNA-3 vector carrying a complete PPARγ cDNA were used for transfection experiments. The PPRE-Luc plasmid contains a luciferase reporter gene under the transcriptional control of three copies of the PPRE (Peroxisome Proliferator Response Element) derived from Acyl-CoA oxidase gene fused upstream to the herpes simplex thymidine kinase (TK) promoter, as described. The RSV-βGal plasmid, expressing β-galactosidase gene, driven by the strong Rous Sarcoma Virus (RSV) promoter/cassette was used as an internal control for transfection efficiency. Transient transfection assays were carried out as described in ref. [44]. […]

HT29 cells = assay: Western blot of proliferation/apoptosis markers in HT29 cells; type: cell-based
Description: In addition, the expression of two components of the apoptotic pathway, such as caspase 3 and its substrate Poly (ADP-ribose) polymerase (PARP), was affected resulting in a reduction of the pro-caspase 3 precursor and an increase of the PARP cleaved form. Pre-treatment with GW9662 counteracted both the effects (Fig. 7b,c).
The graphs in (a–c) represent the mean ± SD of the protein/β-actin ratio from two independent experiments for p21^waf1/cip1, Caspase-3 precursor and cleaved PARP proteins, respectively. The graph in (d) represents the mean ± SD of pAKT/AKT ratio from two independent experiments.
Treated and untreated cells were lysed in Ripa buffer (150 mM NaCl, 50 mM Tris-HCl, pH 7.6, 10 mM EDTA, 1% NP-40) containing also a protease inhibitors cocktail and then centrifugated at 17,000 RCF for 10 min, at 4 °C. Supernatant containing total proteins was quantified and 80 μg of each sample were separated on 12% SDS-PAGE. Western blotting assays were carried out] Protein extracts from treated and untreated cells were obtained, quantified and analyzed by Western blot as reported.

HT-29 cells = assay: HT-29 cell growth (cell counting)
Procedure: Data are the mean ± SD of three independent experiments performed in duplicate giving similar results. Significance is indicated as *p ≤ 0.05, **p ≤ 0.01 and ***p ≤ 0.001. (b) HT29 cells were seeded in 24-well in order to reach the density of cells/cm^2 in standard conditions (10^5 cells). […] The experiments were performed in triplicate and the data expressed as mean ± SD. Significance is indicated as **p ≤ 0.01 and ***p ≤ 0.001.

[1] = exposure for 6 h, compound alone

SMILES: C=C1C(=O)C23CCC4C(C(=O)OC)CC(O)CC4(C)C2CCC1C3 (stereo not shown) [Compound 1, 15-ketoatractyligenin methyl ester]
- dissociation of 1/PPARγ complex (PPARγ; SPR, compared with 1/PPARα complex): required longer times and was incomplete
- Kd (PPARγ; SPR, immobilized PPARγ): 25.8 ± 5.5 nM
- interaction with PPARγ pre-incubated with 1 (PPARγ; protein immobilized after 2 h incubation with 5-fold molar excess of 1): did not interact
- luciferase activity less than Rosiglitazone (wild-type PPARγ1): 40%
- p21^waf1/cip1 levels (HT29 cells; [1]): sharply increased
- p-AKT levels (HT29 cells; [1]): robust reduction
- PARP cleaved form (HT29 cells; exposure for 48 h): increase
- pro-caspase 3 precursor expression (HT29 cells; exposure for 48 h): reduction
- inhibition of cell growth (HT-29 cells; 1, 5 and 10 μM for 24 and 48 h): more pronounced dosage-dependent inhibition of cell growth than Rosiglitazone
- cell counts after GW9662 pre-treatment versus compound alone (HT-29 cells; GW9662 10 μM 6 h, then compound 10 μM for 24 and 48 h): increased cell counts
